{"source": "patent US10537103B2", "about": "“Antibacterial composition containing an isomer mixture of monosaccharide alkyl monoacetals or monoethers” (TEREOS STARCH & SWEETENERS BELGIUM, priority 2014, dated 2020)", "key": {"[1]": {"assay": "Water solubility of test solutions", "type": "physicochemical", "details": "solutions diluted in water, 2.5% m ethanol; precipitates formed", "experimental": "Tests have been conducted on Gram-positive bacteria with methyl glucopyranoside derivatives. […] After sterilization the solutions are diluted in water. […] Because precipitates formed in the solutions, the effect of these methyl glucopyranoside C10 and C12 acetals was not able to be evaluated. The results obtained for antimicrobial tests on the 3 bacterial strains L. monocytogenes (CIP 103575), E. faecalis (ATCC® 29212) and S. aureus (ATCC® […]) are summarized in Table 1."}, "[2]": {"tested_on": "L. monocytogenes strains (CIP 103575, LM1, LM2, LM3)", "assay": "MIC on a wider panel of strains (Example 10), microdilution", "type": "cell-based", "details": "Listeria monocytogenes, CIP103575", "experimental": "The cultures studied, freshly isolated (after incubation on a blood agar at 37° C. for 18 h), are taken up in sterile water (10 mL) until obtaining a 0.5 McFarland (Mc) suspension i.e. 1 to 1 to 2×10^8 CFU (bacteria)/cm^3. The bacterial suspension was then diluted to obtain a final concentration of 1×10^6 CFU/cm^3. Each well contains an identical quantity of Mueller-Hinton medium (a rich medium for bacterial culture) and bacteria with final [concentration of] 0.5×10^6 CFU/cm^3. The test compounds of interest are solubilized in ethanol or DMSO at 25 mg/mL before being diluted to different concentrations two by two. On the multiwell plate, a first series has been planned comprising the culture medium without the test compound of interest. It corresponds to the growth control (control well). These controls serve as reference for comparing bacterial growth with that of the subsequent wells comprising different concentrations of the test compound of interest. The second series of wells comprises the mother solution for the test compound of interest for a concentration in the wells of 256 mg/L (7 mM). Each series of wells was diluted two by two until the last series for a final concentration of 0.25 mg/L (0.0007 mM). Each concentration is duplicated in the same plate. The plate is incubated for 18 h at 37° C. […] If there is antibacterial activity, the bacterial growth is inhibited, which means that no turbidity or bacterial residue is present. The minimum inhibitory concentrations (MIC) are tested on Gram-positive bacterial strains according to the recommendations of the “Clinical Laboratory Standards Institute” (Clinical-Laboratory-Standards-Institute, 6th ed. Approved standard M100-S17. CLSI, Wayne, Pa., 2007). The clinical strains have been isolated in the Hospice de Lyon. Listeria: L. monocytogenes (CIP 103575), clinical strain isolated from hemoculture (015189074801, LM1), a strain isolated from cerebrospinal liquid (015170199001, LM2), clinical strains isolated from hemoculture (015181840701, LM3). The cultures studied, freshly isolated (after incubation on a blood agar at 37° C. for 18 h), are taken up in sterile water (10 mL) until obtaining a 0.5 McFarland (Mc) suspension i.e. At 10^8 CFU (bacteria)/cm^3. The bacterial suspension was then diluted to obtain a final concentration of 10^6 CFU/cm^3."}, "[3]": {"details": "L. monocytogenes CIP 103575, read-out: MIC Listeria CIP 103575"}}, "note": "Like-named read-outs stand apart in the source and are kept apart here."}
{"smiles": "CCCCCCCCCCCC1OCC2O[C@H](OC)C(O)C(O)[C@@H]2O1", "note": "(stereo partly drawn) [Compound 1e, Methyl 4,6-O-Dodecylidene α-D-glucopyranoside]", "values": [{"measurement": "water solubility", "setting": "[1]", "result": "low water solubility"}, {"measurement": "MIC", "setting": "[2]; [3]", "result": 64, "unit": "µg/mL"}]}
{"smiles": "CCCCCCCCCCCC1OCC2O[C@@H](OC)C(O)C(O)[C@@H]2O1", "note": "(stereo partly drawn) [Compound 1f, Methyl 4,6-O-Dodecylidene β-D-glucopyranoside]", "values": [{"measurement": "MIC", "setting": "[2]; [3]", "result": 16, "unit": "µg/mL"}, {"measurement": "MIC", "setting": "[2]; clinical strain from hemoculture 015181840701, read-out: MIC Listeria LM3", "result": 64, "unit": "µg/mL"}, {"measurement": "MIC", "setting": "[2]; clinical strain from hemoculture 015189074801, read-out: MIC Listeria LM1", "result": 16, "unit": "µg/mL"}, {"measurement": "MIC", "setting": "[2]; strain from cerebrospinal liquid 015170199001, read-out: MIC Listeria LM2", "result": 16, "unit": "µg/mL"}]}
